The values that follow come from patent US5665739A, “Substituted benzoylguanidines, process and their preparation, their use as pharmaceutical or diagnostic, and pharmaceutical containing them” (priority 1992, dated 1997).

For data set [1], the target named is T1, Na^+ /H^+ exchanger (Oryctolagus cuniculus, UniProt P23791).
T1 construct: endogenous in cells; host or cells: rabbit erythrocytes (blood of cholesterol-fed White New Zealand rabbits)
Nature of the data set: Inhibition of the Na+/H+ exchanger of rabbit erythrocytes. Type of data set: cell-based. Conditions: amiloride-sensitive Na+ influx, pH 7.4, 37° C. The text has this:
Inhibition of the Na^+ /H^+ exchanger of rabbit erythrocytes
White New Zealand rabbits (Ivanovas) were given a standard diet containing 2% of cholesterol for six weeks so as to activate the Na^+ /H^+ exchange in order to be able to determine the Na^+ influx into the erythrocytes via Na^+ /H^+ exchange by means of flame photometry. The blood was sampled from the auricular artery and made incoagulable by addition of 25 IE of potassium heparin. Part of each sample was used for a repeated hematocrit measurement by centrifuging. 100 μl aliquots were used for measuring the initial Na^+ content of the erythrocytes.
To determine the amiloride-sensitive sodium influx, 100 μl of each blood sample were incubated in in each case 5 ml of a hyperosmolaric salt/sucrose medium (mmol/l: 140 NaCl, 3 KCl, 150 sucrose, 0.1 ouabain, 20 tris-hydroxymethylaminomethane) at pH 7.4 and 37° C. […] The intracellular sodium content was determined by flame photometry.
The Na^+ net influx was calculated from the difference between the initial sodium values and the sodium content of the erythrocytes after incubation. The sodium influx which can be inhibited by amiloride was determined from the difference of the sodium content of the erythrocytes after incubation with and without amiloride 3×10^-4 mol/l. […]

For data set [2], the system named is artificially induced ventricular fibrillation. Conditions: rats' hearts; Eur. Heart J. 9 (suppl. 1): 167 (1988); cited from earlier work.
The conditions of data set [3]: in vivo; cited from earlier work.

T1 sequence (P23791 whole entry): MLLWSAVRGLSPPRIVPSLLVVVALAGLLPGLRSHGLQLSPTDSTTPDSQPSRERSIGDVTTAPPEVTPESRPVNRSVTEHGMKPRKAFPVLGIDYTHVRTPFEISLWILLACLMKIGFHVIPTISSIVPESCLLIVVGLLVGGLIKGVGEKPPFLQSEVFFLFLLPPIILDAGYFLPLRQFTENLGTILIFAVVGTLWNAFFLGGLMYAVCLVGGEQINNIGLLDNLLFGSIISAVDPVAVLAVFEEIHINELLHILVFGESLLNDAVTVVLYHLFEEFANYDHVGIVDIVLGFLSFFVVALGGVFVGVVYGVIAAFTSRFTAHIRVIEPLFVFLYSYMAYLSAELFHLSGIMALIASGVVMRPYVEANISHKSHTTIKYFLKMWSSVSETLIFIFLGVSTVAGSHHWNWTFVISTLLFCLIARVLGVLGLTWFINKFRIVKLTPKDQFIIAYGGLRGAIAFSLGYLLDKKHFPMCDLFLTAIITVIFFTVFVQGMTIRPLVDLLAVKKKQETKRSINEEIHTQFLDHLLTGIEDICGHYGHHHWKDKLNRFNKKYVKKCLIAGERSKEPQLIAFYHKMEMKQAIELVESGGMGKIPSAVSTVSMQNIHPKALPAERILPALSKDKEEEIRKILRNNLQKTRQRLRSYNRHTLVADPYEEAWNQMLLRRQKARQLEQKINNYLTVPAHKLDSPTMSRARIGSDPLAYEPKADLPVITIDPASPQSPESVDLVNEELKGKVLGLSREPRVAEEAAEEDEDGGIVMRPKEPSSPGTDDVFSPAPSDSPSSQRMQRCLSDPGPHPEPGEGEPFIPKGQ

The term IC50 denotes the concentration needed to halve the response being measured. Read a low IC50 as higher potency. Consider `NC(N)=NC(=O)c1ccc(Oc2cccnc2)c(C(F)(F)F)c1` [Example 16, 4-(3-Pyridyloxy)-3-trifluoromethylbenzoylguanidine], for which, in data set [1], the IC50 came out at 30 nM. For the compound `NC(N)=NC(=O)c1ccc(Oc2ccc3ncccc3c2)c(C(F)(F)F)c1` [Example 17, 4-(6-Quinolinoxy)-3-trifluoromethylbenzoylguanidine], the IC50 in data set [1] was determined as 40 nM.

As to `NC(N)=NC(=O)c1nc(Cl)c(N)nc1N` [amiloride, Amiloride], the “suppression of artificially induced ventricular fibrillation” value in data set [2] was “suppressed completely”. Further, the “hypotensive and saluretic side effects” value in data set [3] is “accompanied by a hypotensive and saluretic activity”. With `CCN(c1nc(N)c(C(=O)N=C(N)N)nc1Cl)C(C)C` [ethylisopropylamiloride, Ethylisopropylamiloride], the “suppression of artificially induced ventricular fibrillation” value in data set [2] is “even more potent than amiloride itself”.
